Experiments:
[1] = system: HCMV Strain AD169; experiment: Viral qPCR assay, HCMV; format: cell-based, Human cytomegalovirus; conditions: Human betaherpesvirus 5, AD169, MRC5, 72 h, MRC-5 cells, 0.05-0.1 pfu/cell, growth media or 50% fetal bovine serum, viral genome copies by qPCR, read-out: CMV Cell (EC50)
In short: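 HCMV AD169 at 0.05-0.1 pfu/cell infected MRC-5 cells, added to 10-point 3-fold compound dilutions, in growth medium or medium with 50% FBS; ~72 h at 37°C. Viral genome copies by TaqMan qPCR against plasmid standard curve, normalized to DMSO and uninfected controls; EC50 from 4-parameter fit.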

[2] = system: HSV-1 Strain F; experiment: Viral qPCR assay, HSV-1; format: cell-based, Herpes Simplex Virus type 1; conditions: Human alphaherpesvirus 1, 72 h, Vero or MRC5 cells, 0.0005-0.004 pfu/cell, growth medium, viral genome copies by qPCR, read-out: HSV1 Cell (EC50)
In short: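 HSV-1 strain F at 0.0005–0.004 pfu/cell infected Vero or MRC5 cells, which were added to a 10-point 3-fold compound dilution and cultured ~72 h at 37 °C. Viral genomes in the lysates were quantified by TaqMan qPCR against a plasmid standard curve, in some runs normalized to cellular PPIA. EC50 came from a 4-parameter fit of % effect.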

[3] = system: VZV; experiment: Viral qPCR assay, VZV; format: cell-based, varicella zoster virus; conditions: Human alphaherpesvirus 3, 72 h, MeWo or MRC5 cells, 0.04-0.1 pfu/cell, growth medium, viral genome copies by qPCR
In short: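 VZV strain Street at 0.04-0.1 pfu/cell infected MeWo or MRC5 cells added to 10-point, 3-fold compound dilutions; ~72 h at 37° C. Viral genome copies by TaqMan qPCR against plasmid standard curve, sometimes normalised to PPIA, scaled between uninfected and DMSO-infected controls; EC50 from 4-parameter fit.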

[4] = molecular target: T1, varicella zoster virus DNA polymerase (Varicella-zoster virus, UniProt P09252); experiment: VZV polymerase assay (AlphaLISA); format: biochemical; conditions: VZV polymerase 0.4 nM; 30 min pre-incubation; 60 min at 37° C.
T1 construct: made in house; host or cells: SF21 insect cells (baculovirus vector)
Description: Human cytomegalovirus and varicella zoster virus DNA polymerases were expressed via baculovirus vector in SF21 cells and purified. Heterodimeric nucleic acid substrate used in the herpesvirus polymerase reactions was generated by annealing a 59-mer template to a 17-mer digoxigenin-labeled primer. Polymerase (HCMV final concentration of 0.2 nM; VZV final concentration of 0.4 nM) was combined with an inhibitor compound or DMSO in assay buffer (10 mM HEPES, pH 7.5, 25 mM KCl, 25 mM NaCl, 5 mM MgCl2, 5% glycerol, 0.67 mg/ml bovine serum albumin, and 1 mM tris(2-carboxyethyl)phosphine), and this mixture was pre-incubated for 30 minutes at room temperature in 384-well microtiter plates. The polymerization reaction was initiated by the addition of template/primer substrate (final concentration: 1.6 nM), and dNTPs (final concentration: 24 nM dCTP, 24 nMdGTP, 16 nM dATP, 16 nM dTTP, and 0.8 nM biotin-dUTP). After 60 min incubation at 37° C., reactions were terminated with quench buffer (25 mM HEPES pH 7.5, 100 mM NaCl, 0.25% Tween-20, 12 mM EDTA, and 1 mg/ml bovine serum albumin). Incorporation of biotinylated UTP was detected with 2.5-5 ug/ml anti-DIG AlphaLISA acceptor beads and 5-10 ug/ml streptavidin AlphaLISA donor beads (PerkinElmer). Compound effects were normalized to the window defined by the controls (DMSO only and pre-quenched wells) and were fit using a 4-parameter algorithm to report an IC50.

[5] = molecular target: T2, Human cytomegalovirus DNA polymerase (Human cytomegalovirus, UniProt P08546); experiment: CMV polymerase assay (AlphaLISA); format: biochemical; conditions: HCMV polymerase 0.2 nM; 30 min pre-incubation; 60 min at 37° C.; read-out: CMV (IC50)
T2 construct: made in house; host or cells: SF21 insect cells (baculovirus vector)
In short: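 Baculovirus-expressed polymerase (HCMV 0.2 nM, VZV 0.4 nM) preincubated 30 min with compound, then reacted 60 min at 37 °C with 1.6 nM DIG-primer/59-mer template and low-nM dNTPs including 0.8 nM biotin-dUTP. Incorporation detected by AlphaLISA; IC50 from a 4-parameter fit normalized to DMSO and pre-quenched controls.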

T2 sequence (P08546 whole entry): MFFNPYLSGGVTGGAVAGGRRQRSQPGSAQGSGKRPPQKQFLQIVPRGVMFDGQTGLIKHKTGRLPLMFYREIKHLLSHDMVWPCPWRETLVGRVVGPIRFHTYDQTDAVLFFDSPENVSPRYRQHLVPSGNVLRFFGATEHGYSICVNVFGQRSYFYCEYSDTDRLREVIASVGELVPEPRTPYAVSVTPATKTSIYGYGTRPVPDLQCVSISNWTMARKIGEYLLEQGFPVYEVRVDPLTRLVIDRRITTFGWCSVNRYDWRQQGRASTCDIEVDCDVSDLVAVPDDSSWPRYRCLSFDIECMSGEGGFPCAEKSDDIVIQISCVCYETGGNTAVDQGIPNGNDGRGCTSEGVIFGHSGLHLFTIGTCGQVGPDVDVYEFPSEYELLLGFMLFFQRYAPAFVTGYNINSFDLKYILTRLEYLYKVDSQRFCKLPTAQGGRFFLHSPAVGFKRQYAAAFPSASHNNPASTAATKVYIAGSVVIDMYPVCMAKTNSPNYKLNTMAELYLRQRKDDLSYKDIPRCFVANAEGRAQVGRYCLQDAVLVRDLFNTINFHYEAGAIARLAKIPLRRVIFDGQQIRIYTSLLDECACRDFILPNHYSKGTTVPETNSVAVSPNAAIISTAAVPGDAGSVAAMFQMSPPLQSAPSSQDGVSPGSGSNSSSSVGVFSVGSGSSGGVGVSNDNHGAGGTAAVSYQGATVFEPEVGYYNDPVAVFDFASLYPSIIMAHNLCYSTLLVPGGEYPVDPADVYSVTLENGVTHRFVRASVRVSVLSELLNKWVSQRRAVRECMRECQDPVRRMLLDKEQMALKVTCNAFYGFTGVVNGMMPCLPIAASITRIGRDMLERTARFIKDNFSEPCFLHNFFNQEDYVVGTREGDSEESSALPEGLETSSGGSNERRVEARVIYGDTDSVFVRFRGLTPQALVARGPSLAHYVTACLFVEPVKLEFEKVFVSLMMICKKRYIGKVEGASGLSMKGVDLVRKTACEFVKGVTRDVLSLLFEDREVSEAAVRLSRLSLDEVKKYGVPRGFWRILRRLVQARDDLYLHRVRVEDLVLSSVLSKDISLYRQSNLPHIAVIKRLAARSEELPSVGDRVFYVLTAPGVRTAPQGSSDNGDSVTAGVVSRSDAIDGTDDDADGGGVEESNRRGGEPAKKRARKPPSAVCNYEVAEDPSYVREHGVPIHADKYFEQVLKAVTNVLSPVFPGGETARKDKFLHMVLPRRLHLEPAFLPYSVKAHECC
T1 sequence (P09252 whole entry): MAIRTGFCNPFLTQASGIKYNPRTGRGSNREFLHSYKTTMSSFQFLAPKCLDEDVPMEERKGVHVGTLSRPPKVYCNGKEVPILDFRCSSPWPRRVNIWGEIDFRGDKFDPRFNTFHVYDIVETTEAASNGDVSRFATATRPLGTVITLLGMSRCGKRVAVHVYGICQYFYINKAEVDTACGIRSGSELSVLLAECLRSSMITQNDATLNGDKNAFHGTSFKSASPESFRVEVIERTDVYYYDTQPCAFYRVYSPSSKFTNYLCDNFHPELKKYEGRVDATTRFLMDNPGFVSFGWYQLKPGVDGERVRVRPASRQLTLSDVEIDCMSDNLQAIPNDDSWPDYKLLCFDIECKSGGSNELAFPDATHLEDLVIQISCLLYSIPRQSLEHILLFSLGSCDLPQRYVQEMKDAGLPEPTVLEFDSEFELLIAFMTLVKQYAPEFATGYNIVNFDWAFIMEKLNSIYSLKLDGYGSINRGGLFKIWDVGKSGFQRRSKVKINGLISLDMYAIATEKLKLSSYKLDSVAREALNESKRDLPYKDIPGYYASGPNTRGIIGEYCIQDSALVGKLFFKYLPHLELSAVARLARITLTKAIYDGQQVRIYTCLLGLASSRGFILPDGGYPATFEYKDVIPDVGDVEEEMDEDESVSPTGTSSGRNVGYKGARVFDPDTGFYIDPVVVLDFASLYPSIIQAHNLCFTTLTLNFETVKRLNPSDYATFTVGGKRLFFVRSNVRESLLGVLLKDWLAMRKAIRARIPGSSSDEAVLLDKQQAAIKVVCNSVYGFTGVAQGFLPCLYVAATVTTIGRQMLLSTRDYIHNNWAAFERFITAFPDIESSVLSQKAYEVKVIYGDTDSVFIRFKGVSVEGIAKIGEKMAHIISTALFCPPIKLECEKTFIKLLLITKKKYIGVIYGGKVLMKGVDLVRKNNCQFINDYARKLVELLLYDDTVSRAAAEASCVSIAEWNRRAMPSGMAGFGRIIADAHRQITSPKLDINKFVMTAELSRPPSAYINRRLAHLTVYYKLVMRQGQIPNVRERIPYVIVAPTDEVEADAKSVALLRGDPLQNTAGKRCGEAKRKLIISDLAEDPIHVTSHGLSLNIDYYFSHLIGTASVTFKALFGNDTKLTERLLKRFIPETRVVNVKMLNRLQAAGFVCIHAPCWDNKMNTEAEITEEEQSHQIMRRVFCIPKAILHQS

SMILES | EC50 [1] [nM] | EC50 [2] [nM] | EC50 [3] [nM] | IC50 [4] [nM] | IC50 [5] [nM]
COc1nc(N2CCC(C(C)(C)N)C2)c(O[C@H]2CCN3C(=O)OC[C@@H]3C2)cc1C(=O)NCc1ccc(Cl)cc1 (single isomer, unassigned) [Compound 71] | 221 | 396 | 468 | 3.54 | 22.8
COc1nc(-c2cnn(C(F)F)c2)c(O[C@H]2CCN3C(=O)OC[C@@H]3C2)cc1C(=O)NCc1ccc(C#N)c(F)c1 [Compound 58] | 59.3 | 63.4 | 103 | 0.259 | 2.95
COc1nc(-c2nc(C)no2)c(O[C@H]2CCN3C(=O)OC[C@@H]3C2)cc1C(=O)NCc1ccc(Cl)cc1 [Compound 82] | 83.5 | 73.9 | 103 | 0.0532 | 8.36
COc1nc(-c2nc(C)ns2)c(O[C@H]2CCN3C(=O)OC[C@@H]3C2)cc1C(=O)NCc1ccc(Cl)cc1 [Compound 61] | 60.1 | 49 | 70.8 | 0.0412 | 1.44
